pIC50: −log10 of the molar value. Where a SMILES comes first, the peptide text is derived from it. Bridges are numbered along the chain shown (N, C = ends). [ ]: non-standard residue; d: D form. Hyp = O=C(O)[C@@H]1C[C@@H](O)CN1
Key:
Experiment in all cases: cell-based
human α6/α3β4 nAChR = biological target: T1, human α6/α3β4 nAChR (Homo sapiens, UniProt P30926+P32297+Q15825)
T1 construct: expressed in transfected cells; host or cells: Xenopus laevis oocytes (cRNA injection, 1:1 ratio)

human α6/α3β2β3 nAChR = biological target: T2, human α6/α3β2β3 nAChR (Homo sapiens, UniProt P17787+P32297+Q05901+Q15825)
T2 construct: expressed in transfected cells; host or cells: Xenopus laevis oocytes (cRNA injection, 1:1 ratio)

human α3β4 nAChR = biological target: T3, human α3β4 nAChR (Homo sapiens, UniProt P30926+P32297)
T3 construct: expressed in transfected cells; host or cells: Xenopus laevis oocytes (cRNA injection, 1:1 ratio)
T3 sequence (P32297 32-505 limits assumed): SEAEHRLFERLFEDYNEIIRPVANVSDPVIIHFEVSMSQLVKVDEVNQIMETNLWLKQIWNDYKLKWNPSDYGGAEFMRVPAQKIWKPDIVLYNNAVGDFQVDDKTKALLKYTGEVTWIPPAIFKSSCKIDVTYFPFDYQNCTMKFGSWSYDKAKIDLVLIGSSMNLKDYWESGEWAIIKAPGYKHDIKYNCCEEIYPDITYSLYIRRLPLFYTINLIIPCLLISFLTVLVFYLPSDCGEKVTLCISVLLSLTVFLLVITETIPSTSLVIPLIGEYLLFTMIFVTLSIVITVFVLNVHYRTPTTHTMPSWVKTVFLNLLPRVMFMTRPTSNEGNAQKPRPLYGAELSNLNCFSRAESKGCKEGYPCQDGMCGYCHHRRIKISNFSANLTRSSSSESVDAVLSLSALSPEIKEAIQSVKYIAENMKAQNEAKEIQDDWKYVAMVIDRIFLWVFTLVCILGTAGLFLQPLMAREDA
T3 sequence (P30926 22-498 limits assumed): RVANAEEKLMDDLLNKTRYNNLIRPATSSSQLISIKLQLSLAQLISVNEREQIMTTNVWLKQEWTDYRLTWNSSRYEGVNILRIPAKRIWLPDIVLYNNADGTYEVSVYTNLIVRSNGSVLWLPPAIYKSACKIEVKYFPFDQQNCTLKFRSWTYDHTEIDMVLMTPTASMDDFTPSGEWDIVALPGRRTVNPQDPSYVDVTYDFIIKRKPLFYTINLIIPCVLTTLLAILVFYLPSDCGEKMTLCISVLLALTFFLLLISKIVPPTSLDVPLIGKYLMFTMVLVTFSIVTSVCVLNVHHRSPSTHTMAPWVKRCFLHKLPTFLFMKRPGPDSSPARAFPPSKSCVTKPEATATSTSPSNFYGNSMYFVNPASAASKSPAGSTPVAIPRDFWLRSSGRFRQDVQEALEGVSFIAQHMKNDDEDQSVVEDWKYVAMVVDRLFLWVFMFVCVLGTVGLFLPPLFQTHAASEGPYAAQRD

T1 sequence (P30926 whole entry, looked up): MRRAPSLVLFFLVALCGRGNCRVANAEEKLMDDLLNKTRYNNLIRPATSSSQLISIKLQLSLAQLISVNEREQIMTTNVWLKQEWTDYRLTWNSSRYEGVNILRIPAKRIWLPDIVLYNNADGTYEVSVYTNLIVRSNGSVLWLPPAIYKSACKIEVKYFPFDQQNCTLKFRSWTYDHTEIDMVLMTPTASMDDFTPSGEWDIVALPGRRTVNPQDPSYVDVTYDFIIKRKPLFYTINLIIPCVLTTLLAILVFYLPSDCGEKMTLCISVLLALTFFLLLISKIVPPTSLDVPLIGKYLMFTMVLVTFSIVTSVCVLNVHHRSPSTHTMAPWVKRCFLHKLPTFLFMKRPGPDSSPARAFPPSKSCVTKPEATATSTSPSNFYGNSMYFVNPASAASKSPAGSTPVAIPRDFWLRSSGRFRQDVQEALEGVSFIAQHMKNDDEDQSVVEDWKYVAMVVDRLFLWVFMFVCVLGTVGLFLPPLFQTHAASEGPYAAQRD
T1 sequence (P32297 whole entry, looked up): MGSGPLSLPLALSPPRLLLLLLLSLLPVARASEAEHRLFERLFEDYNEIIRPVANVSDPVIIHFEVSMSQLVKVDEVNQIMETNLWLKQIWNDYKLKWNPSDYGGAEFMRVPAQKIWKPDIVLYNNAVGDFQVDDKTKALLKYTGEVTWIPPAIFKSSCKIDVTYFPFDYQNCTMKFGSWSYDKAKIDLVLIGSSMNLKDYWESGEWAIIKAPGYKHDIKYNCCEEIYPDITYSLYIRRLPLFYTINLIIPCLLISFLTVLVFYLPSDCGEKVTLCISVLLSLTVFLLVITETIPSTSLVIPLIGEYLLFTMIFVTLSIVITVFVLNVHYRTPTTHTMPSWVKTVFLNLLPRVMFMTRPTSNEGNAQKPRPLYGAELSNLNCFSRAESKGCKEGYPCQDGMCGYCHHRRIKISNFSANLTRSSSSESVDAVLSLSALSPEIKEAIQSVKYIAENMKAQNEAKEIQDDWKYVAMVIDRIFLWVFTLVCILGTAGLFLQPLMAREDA
T1 sequence (Q15825 whole entry, looked up): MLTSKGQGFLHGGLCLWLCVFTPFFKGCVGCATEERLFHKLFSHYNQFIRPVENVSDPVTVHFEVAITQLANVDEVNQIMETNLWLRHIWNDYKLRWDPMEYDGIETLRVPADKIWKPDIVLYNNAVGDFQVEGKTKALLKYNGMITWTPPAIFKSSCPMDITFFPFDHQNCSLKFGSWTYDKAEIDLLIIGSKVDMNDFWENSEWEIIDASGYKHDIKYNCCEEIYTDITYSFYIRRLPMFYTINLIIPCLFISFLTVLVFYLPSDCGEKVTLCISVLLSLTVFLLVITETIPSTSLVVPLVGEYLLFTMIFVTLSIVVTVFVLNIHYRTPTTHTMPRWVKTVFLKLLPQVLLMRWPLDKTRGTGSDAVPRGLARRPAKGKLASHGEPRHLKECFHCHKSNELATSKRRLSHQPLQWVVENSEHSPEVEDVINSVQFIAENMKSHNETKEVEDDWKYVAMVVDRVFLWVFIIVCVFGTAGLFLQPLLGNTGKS
T2 sequence (P17787 whole entry, looked up): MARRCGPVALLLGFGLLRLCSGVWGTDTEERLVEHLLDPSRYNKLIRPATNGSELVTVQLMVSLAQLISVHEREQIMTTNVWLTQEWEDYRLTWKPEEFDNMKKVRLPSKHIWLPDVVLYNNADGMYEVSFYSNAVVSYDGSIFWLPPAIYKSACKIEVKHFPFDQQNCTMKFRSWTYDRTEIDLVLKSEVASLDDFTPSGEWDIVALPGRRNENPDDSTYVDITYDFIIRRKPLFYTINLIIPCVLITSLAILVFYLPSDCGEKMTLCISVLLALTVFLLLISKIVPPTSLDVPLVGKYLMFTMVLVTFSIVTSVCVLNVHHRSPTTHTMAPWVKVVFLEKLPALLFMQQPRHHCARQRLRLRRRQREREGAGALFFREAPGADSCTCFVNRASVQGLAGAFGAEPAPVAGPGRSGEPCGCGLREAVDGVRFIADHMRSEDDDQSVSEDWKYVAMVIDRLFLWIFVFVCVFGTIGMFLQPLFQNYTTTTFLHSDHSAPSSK
T2 sequence (P32297 whole entry, looked up): as the sequence (P32297 whole entry, looked up) above
T2 sequence (Q05901 whole entry, looked up): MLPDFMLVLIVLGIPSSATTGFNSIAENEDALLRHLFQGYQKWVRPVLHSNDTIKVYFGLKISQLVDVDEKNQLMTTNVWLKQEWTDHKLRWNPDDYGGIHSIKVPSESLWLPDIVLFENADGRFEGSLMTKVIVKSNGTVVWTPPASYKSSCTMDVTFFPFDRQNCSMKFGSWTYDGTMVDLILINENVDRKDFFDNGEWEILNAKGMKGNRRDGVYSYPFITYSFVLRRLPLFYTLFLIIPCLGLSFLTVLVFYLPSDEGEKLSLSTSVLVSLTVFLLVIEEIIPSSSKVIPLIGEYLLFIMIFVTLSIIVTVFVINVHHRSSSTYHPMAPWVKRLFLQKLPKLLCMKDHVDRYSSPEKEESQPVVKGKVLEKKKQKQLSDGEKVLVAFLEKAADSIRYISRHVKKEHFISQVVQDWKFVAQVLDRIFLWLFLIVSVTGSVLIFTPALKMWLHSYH
T2 sequence (Q15825 whole entry, looked up): as the sequence (Q15825 whole entry, looked up) above

Compound	pIC50 (human α6/α3β4 nAChR)	fold selectivity, α6/α3β4 over α6/α3β2β3 (IC50 ratio) (human α6/α3β4 nAChR) [fold]	pIC50 (human α6/α3β2β3 nAChR)	pIC50 (human α3β4 nAChR)
CC(C)C[C@@H]1NC(=O)[C@H](C(C)C)NC(=O)[C@H](C)NC(=O)[C@@H]2CSSC[C@H](NC(=O)CN)C(=O)N[C@@H](CSSC[C@@H](C(N)=O)NC(=O)[C@H](Cc3ccc(O)cc3)NC1=O)C(=O)N[C@@H](CO)C(=O)N[C@@H](C)C(=O)N1C[C@H](O)C[C@H]1C(=O)N1CCC[C@H]1C(=O)N2 [BuIA[T5A,P6O]] (H-GCCSA[Hyp]PCAVLYC-NH2; disulfide 2-8, 3-13)	7.95	> 900	< 5.00	–
CC(C)C[C@@H]1NC(=O)[C@H](C)NC(=O)[C@@H]2CSSC[C@H](NC(=O)CN)C(=O)N[C@@H](CSSC[C@@H](C(N)=O)NC(=O)[C@H](C)NC(=O)[C@H](CC(N)=O)NC(=O)[C@H](CO)NC(=O)[C@H](Cc3cnc[nH]3)NC(=O)[C@H](CCC(=O)O)NC1=O)C(=O)N[C@@H](CO)C(=O)N[C@@H](CC(N)=O)C(=O)N1CCC[C@H]1C(=O)N[C@@H](C(C)C)C(=O)N2 [MII[H9A,L15A]] (H-GCCSNPVCALEHSNAC-NH2; disulfide 2-8, 3-16)	7.88	–	–	5.85
